US20200246298A1, “Composition for Preventing or Treating Asthma Comprising Fatty Acid as Active Ingredient” (Dongshin University Industry-Academy Cooperation, priority 2019, published 2020)

What was measured:
Test in all cases: RT-PCR analysis of lung, OVA-induced asthma
Assay type in all cases: in vivo, BALB/c mice
Conditions in all cases: palmitic acid 5, 25, 50 mg/kg oral, FIG. 27
IL-13 = system: IL-13
Procedure: (§1) In test groups, the animals determined to be healthy during the acclimation period were ranked by measuring the weight, and were randomly grouped so that the average weight of each group was uniform. The animals were divided into a total of 9 groups: a control group; a control group with OVA-induced asthma; a positive control group; groups administered with each of 50 mg/kg, 125 mg/kg and 250 mg/kg of oleic acid; and groups administered with each of 5 mg/kg, 25 mg/kg and 50 mg/kg of palmitic acid. The animals were sensitized via intraperitoneal injection of OVA once a week for 2 weeks after the acclimation period. During 5 days of week 3, dexamethasone (DEX) and the test substances oleic acid and palmitic acid were orally administered in the morning and 5% OVA solution was inhaled in the afternoon. The test substance was orally administered in an amount of 28 μL per weight (g) of the experimental animal, and OVA for sensitization was administered in a constant amount regardless of the weight. After 5 days of administration, autopsy was performed the next day.
(§2) In order to evaluate changes in the cDNA levels of IFN-γ, IL-12p40, IL-4, IL-5, IL-13, TNF-α, and IL-6, which are related to asthma induction, RT-PCR analysis was performed as in a previous study protocol (Lee et al., 2017). Total RNA was extracted from the lung using the RNeasy Mini Kit (Qiagen, Hilden, Germany) according to the manufacturer's instructions. Total RNA (100 ng) was used as a template for the reaction.
(§3) The RT-PCR cycles consisted of denaturation at 95° C. for 5 sec and annealing/extension at 65° C. for 30 sec for 40 cycles. The results were obtained using an Axioscope A1 (Carl Zeiss, Gottingen, Germany).

IL-6 = system: IL-6
Procedure: as §1, §2, §3

TNF-α = system: TNF-α
Procedure: as §1, §2, §3

CCCCCCCCCCCCCCCC(=O)O [palmitic acid]
dose-dependently decreased: Th2-related cytokine IL-13 (cDNA level, RT-PCR) (IL-13) | Th17-related cytokine IL-6 (cDNA level, RT-PCR) (IL-6) | Th17-related cytokine TNF-α (cDNA level, RT-PCR) (TNF-α)
